Earlier results on 4 compounds are cited in patent US9555003B2, “Oral solid formulation of compound anti-tubercular drug and preparation method thereof” (priority 2011, dated 2017).

Converted amounts (≈) assume the structure as drawn.

Assay in data set [1]: not given
The source holds these as a separate data set.

Data set [2] concerns tubercle bacillus.

Turning to `CC[C@H](CO)NCCN[C@H](CC)CO.Cl.Cl` [Ethambutol hydrochloride], the “solubility in water” value was “easily soluble”.

What is called Vd is a proportionality between amount in the body and measured concentration, not a real space. Turning to `NNC(=O)c1ccncc1` [Isoniazid, 4-pyridylcarbonylhydrazine], the “solubility in ethanol” value is recorded as “slightly soluble”, the “solubility in ethyl ether” value is recorded as “very slightly soluble” and the “solubility in water” value is “easily soluble”. In data set [1] (in vivo), the Vd is 0.61 ± 0.11 L/kg and the protein binding rate entry was “very low”. For the same compound, in data set [1] (oral), the oral absorption rate was 90% and the “time to peak serum drug concentration after administration” value was 1 to 2 h.

With `NC(=O)c1cnccn1` [Pyrazinamide], the “solubility in ethanol” value is “slightly soluble”, the “solubility in ethyl ether” value is “very slightly soluble” and the “solubility in water” value was “slightly soluble”. Also, the “intra-cellular concentration for inhibiting tubercle bacillus relative to extracellular concentration” value in data set [2] (folds lower than the extracellular concentration) was 10 folds. Besides, in data set [2] (tubercle bacillus), the “concentration at which tubercle bacillus is eliminated” value was 50 µg/mL and the minimum inhibitory concentration is 12.5 µg/mL (≈ 102 µM).

For the compound `CO[C@H]1/C=C/O[C@@]2(C)Oc3c(C)c(O)c4c(O)c(c(/C=N/N5CCN(C)CC5)c(O)c4c3C2=O)NC(=O)/C(C)=C\C=C\[C@H](C)[C@H](O)[C@@H](C)[C@@H](O)[C@@H](C)[C@H](OC(C)=O)[C@@H]1C` [Rifampicin], the “solubility in water” value is reported as “poorly soluble”.
